Laboratory results from ChEMBL document CHEMBL1201862, “PubChem BioAssay data set” (2004).
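These data come from cells grown in 96-well plates and exposed to compound for 48 hours at five concentrations. Abbreviation: GI50, concentration required for 50% inhibition of growth.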 Activity calls are given as the source filed them. Cut-off read from the data, not from the text of the source: active = GI50 up to about 1.1 µM and inactive = higher. Non-standard residues stand in square brackets, D forms with d. Residues, ends and D or L forms follow the SMILES beside them. ξ: configuration not given here. *: point of attachment. NMeF = CN[C@@H](Cc1ccccc1)C(=O)O; NMeN = CN[C@@H](CC(N)=O)C(=O)O; NMeV = CN[C@H](C(=O)O)C(C)C; ξNMeV = CNC(C(=O)O)C(C)C; Boc = CC(C)(C)OC(=O)*; ξNMeA = CNC(C)C(=O)O; ξV = CC(C)C(N)C(=O)O

What was measured:
Assay in all cases: NCI tumour cell line growth inhibition, 48 h
Hs-578T = test system: Hs-578T
SK-MEL-5 = test system: SK-MEL-5
SNB-19 = test system: SNB-19
SF-295 = test system: SF-295
OVCAR-5 = test system: OVCAR-5
HCT-116 = test system: HCT-116
T47D = test system: T47D
A498 = test system: A498
MDA-MB-231 = test system: MDA-MB-231
SK-MEL-2 = test system: SK-MEL-2
TK-10 = test system: TK-10
UACC-257 = test system: UACC-257
DU-145 = test system: DU-145
OVCAR-3 = test system: OVCAR-3
MCF7 = test system: MCF7
HCT-15 = test system: HCT-15
KM12 = test system: KM12
NCI-H460 = test system: NCI-H460
U-251 = test system: U-251
Malme-3M = test system: Malme-3M

Row | Structure (SMILES) | GI50 (Hs-578T) | GI50 (SK-MEL-5) | GI50 (SNB-19) | GI50 (SF-295) | GI50 (OVCAR-5) | GI50 (HCT-116) | GI50 (T47D) | GI50 (A498) | GI50 (MDA-MB-231) | GI50 (SK-MEL-2) | GI50 (TK-10) | GI50 (UACC-257) | GI50 (DU-145) | GI50 (OVCAR-3) | GI50 (MCF7) | GI50 (HCT-15) [µM] | GI50 (KM12) | GI50 (NCI-H460) | GI50 (U-251) | GI50 (Malme-3M)
1 | CCCCCCCCCCCC(=O)c1c(O)cc(C)oc1=O | 51.6 µM (inactive) | 29 µM (inactive) | 62.7 µM (inactive) | 42.8 µM (inactive) | 92.7 µM (inactive) | 45.7 µM (inactive) | 34.8 µM (inactive) | 81.8 µM (inactive) | 28.8 µM (inactive) | 56.4 µM (inactive) | > 100 µM (inactive) | 57.9 µM (inactive) | 48.3 µM (inactive) | 55.5 µM (inactive) | 37.8 µM (inactive) | 41.7 | 44.9 µM (inactive) | 57.4 µM (inactive) | 48.5 µM (inactive) | 45 µM (inactive)
2 | CSc1nc(Br)nc2c1ncn2C1CC(Oc2ccc(C)cc2)C(COc2ccc(C)cc2)O1 (stereo not given) | 25.2 µM (inactive) | > 100 µM (inactive) | 22.5 µM (inactive) | > 100 µM (inactive) | > 100 µM (inactive) | > 100 µM (inactive) | > 100 µM (inactive) | > 100 µM (inactive) | 61.2 µM (inactive) | > 100 µM (inactive) | > 100 µM (inactive) | > 100 µM (inactive) | > 100 µM (inactive) | > 100 µM (inactive) | > 100 µM (inactive) | > 100 | > 100 µM (inactive) | > 100 µM (inactive) | > 100 µM (inactive) | > 100 µM (inactive)
3 | Cc1cc2c(c3oc(C(O)(CO)C4CO4)cc(=O)c13)C(=O)c1c(O)cccc1C2=O (stereo not given) | 0.00436 µM (active) | 0.002 µM (active) | 0.00119 µM (active) | 0.00139 µM (active) | 0.00229 µM (active) | 0.000363 µM (active) | 0.00163 µM (active) | 0.00212 µM (active) | 0.00213 µM (active) | 0.00151 µM (active) | 0.00244 µM (active) | 0.00279 µM (active) | 0.000552 µM (active) | 0.0029 µM (active) | 0.000435 µM (active) | 0.000887 | 0.00104 µM (active) | 0.000372 µM (active) | 0.000826 µM (active) | 0.00169 µM (active)
4 | COC(=O)C(C)N(C)C(=O)[C@H](CC(N)=O)N(C)C(=O)[C@@H]1CCCN1C(=O)[C@H](C(C)C)N(C)C(=O)C(C(C)C)N(C)C(=O)[C@H](Cc1ccccc1)N(C)C(=O)C(NC(=O)OC(C)(C)C)C(C)C (stereo not given in full) (Boc-[ξV][NMeF][ξNMeV][NMeV]P[NMeN][ξNMeA]-OMe) | 10.8 µM (inactive) | 17.2 µM (inactive) | 19.7 µM (inactive) | 12 µM (inactive) | > 50 µM (inactive) | 16.3 µM (inactive) | 19.5 µM (inactive) | 44.4 µM (inactive) | 16.3 µM (inactive) | 9.1 µM (inactive) | 21.2 µM (inactive) | 25.6 µM (inactive) | 28.8 µM (inactive) | 12.5 µM (inactive) | 14.2 µM (inactive) | 22 | 11.2 µM (inactive) | 37.2 µM (inactive) | 11.2 µM (inactive) | 17.8 µM (inactive)
5 | CC1=CP(=O)(c2c(C(C)C)cc(C(C)C)cc2C(C)C)CCC1Cl (stereo not given) | 27.5 µM (inactive) | 16.6 µM (inactive) | 14.4 µM (inactive) | 12.4 µM (inactive) | 16.4 µM (inactive) | 20.1 µM (inactive) | 11.6 µM (inactive) | 15.9 µM (inactive) | 15.3 µM (inactive) | 16.1 µM (inactive) | 15.9 µM (inactive) | 11.6 µM (inactive) | 19.6 µM (inactive) | 10.1 µM (inactive) | 15.4 µM (inactive) | 16 | 17.3 µM (inactive) | 16 µM (inactive) | 14.8 µM (inactive) | 13.9 µM (inactive)
6 | COC(=O)C1CCC(=O)N1C(c1ccc(OC)cc1)c1ccc(OC)cc1 (stereo not given) | > 100 µM (inactive) | > 100 µM (inactive) | > 100 µM (inactive) | > 100 µM (inactive) | > 100 µM (inactive) | > 100 µM (inactive) | 78.9 µM (inactive) | > 100 µM (inactive) | > 100 µM (inactive) | > 100 µM (inactive) | > 100 µM (inactive) | > 100 µM (inactive) | > 100 µM (inactive) | > 100 µM (inactive) | > 100 µM (inactive) | > 100 | > 100 µM (inactive) | > 100 µM (inactive) | > 100 µM (inactive) | > 100 µM (inactive)
7 | CN(C)c1ccc(C(c2ccc(N(C)C)cc2)c2ccc([N+](=O)[O-])cc2)cc1 | > 100 µM (inactive) | > 100 µM (inactive) | > 100 µM (inactive) | > 100 µM (inactive) | > 100 µM (inactive) | > 100 µM (inactive) | > 100 µM (inactive) | > 100 µM (inactive) | > 100 µM (inactive) | > 100 µM (inactive) | > 100 µM (inactive) | > 100 µM (inactive) | > 100 µM (inactive) | > 100 µM (inactive) | > 100 µM (inactive) | > 100 | > 100 µM (inactive) | > 100 µM (inactive) | > 100 µM (inactive) | > 100 µM (inactive)
8 | OC(O)(C(F)(F)F)C(F)(F)F | > 100 µM (inactive) | > 100 µM (inactive) | > 100 µM (inactive) | > 100 µM (inactive) | > 100 µM (inactive) | > 100 µM (inactive) | > 100 µM (inactive) | > 100 µM (inactive) | > 100 µM (inactive) | > 100 µM (inactive) | > 100 µM (inactive) | > 100 µM (inactive) | > 100 µM (inactive) | > 100 µM (inactive) | > 100 µM (inactive) | > 100 | > 100 µM (inactive) | > 100 µM (inactive) | > 100 µM (inactive) | > 100 µM (inactive)
9 | CC(=O)Nc1ccc(/C=C2/NC(=S)N(/C=C3\C(=O)Oc4ccccc4C3=O)C2=O)cc1 | 22.5 µM (inactive) | 77.6 µM (inactive) | > 100 µM (inactive) | 49.8 µM (inactive) | > 100 µM (inactive) | 52.7 µM (inactive) | 64.3 µM (inactive) | 87.5 µM (inactive) | 16.2 µM (inactive) | 40.9 µM (inactive) | 55.8 µM (inactive) | > 100 µM (inactive) | 94 µM (inactive) | 24 µM (inactive) | > 100 µM (inactive) | 32.7 | 45.2 µM (inactive) | 35.6 µM (inactive) | 46.3 µM (inactive) | > 100 µM (inactive)
10 | OCC(O)C(O)C(O)C(O)c1nc2cc(Cl)ccc2[nH]1 (stereo not given) | > 100 µM (inactive) | > 100 µM (inactive) | > 100 µM (inactive) | 28.8 µM (inactive) | > 100 µM (inactive) | > 100 µM (inactive) | > 100 µM (inactive) | > 100 µM (inactive) | > 100 µM (inactive) | > 100 µM (inactive) | > 100 µM (inactive) | > 100 µM (inactive) | > 100 µM (inactive) | > 100 µM (inactive) | > 100 µM (inactive) | > 100 | > 100 µM (inactive) | > 100 µM (inactive) | > 100 µM (inactive) | > 100 µM (inactive)
11 | O=C(O)C1CC(O)CN1 (stereo not given) | > 100 µM (inactive) | > 100 µM (inactive) | > 100 µM (inactive) | > 100 µM (inactive) | > 100 µM (inactive) | > 100 µM (inactive) | > 100 µM (inactive) | > 100 µM (inactive) | > 100 µM (inactive) | > 100 µM (inactive) | > 100 µM (inactive) | > 100 µM (inactive) | > 100 µM (inactive) | > 100 µM (inactive) | > 100 µM (inactive) | > 100 | > 100 µM (inactive) | > 100 µM (inactive) | > 100 µM (inactive) | > 100 µM (inactive)
12 | CC(C)(C)c1cc(C(=O)C2Cc3ccccc3C(=O)O2)cc(C(C)(C)C)c1O (stereo not given) | 29.3 µM (inactive) | 12.6 µM (inactive) | 11.8 µM (inactive) | 14.1 µM (inactive) | 16.6 µM (inactive) | 10.2 µM (inactive) | 16.5 µM (inactive) | 13.5 µM (inactive) | 12.1 µM (inactive) | 10.9 µM (inactive) | 15.3 µM (inactive) | 11.6 µM (inactive) | 14.8 µM (inactive) | 12.2 µM (inactive) | 12.5 µM (inactive) | 12.4 | 12 µM (inactive) | 10.9 µM (inactive) | 10.5 µM (inactive) | 14.6 µM (inactive)
13 | CC(C)CNc1nc(N)nc(O)c1NC=O | > 100 µM (inactive) | > 100 µM (inactive) | > 100 µM (inactive) | > 100 µM (inactive) | > 100 µM (inactive) | > 100 µM (inactive) | > 100 µM (inactive) | > 100 µM (inactive) | > 100 µM (inactive) | > 100 µM (inactive) | > 100 µM (inactive) | > 100 µM (inactive) | > 100 µM (inactive) | > 100 µM (inactive) | > 100 µM (inactive) | > 100 | > 100 µM (inactive) | > 100 µM (inactive) | > 100 µM (inactive) | > 100 µM (inactive)
14 | CN1C/C(=C\c2ccc(Cl)cc2)C(=O)/C(=C/c2ccc(Cl)cc2)C1 | 2.65 µM (inactive) | 2.69 µM (inactive) | 1.25 µM (inactive) | 0.667 µM (active) | 3.34 µM (inactive) | 0.208 µM (active) | 4.48 µM (inactive) | 1.55 µM (inactive) | 1.12 µM (active) | > 88.9 µM (inactive) | 8.75 µM (inactive) | 0.443 µM (active) | 2.54 µM (inactive) | 1.63 µM (inactive) | 0.453 µM (active) | 0.731 | 0.774 µM (active) | 1.17 µM (inactive) | 0.454 µM (active) | 14.3 µM (inactive)
